pIC50: −log10 of the molar value.
Columns and labels:
Cytochrome P450 2C8 = target: T1, Cytochrome P450 2C8 (Homo sapiens, UniProt P10632); experiment: Inhibition of human liver microsome CYP2C8 using paclitaxel as substrate incubated for 20 mins by LC-MS/MS analysis
T1 sequence (P10632 whole entry): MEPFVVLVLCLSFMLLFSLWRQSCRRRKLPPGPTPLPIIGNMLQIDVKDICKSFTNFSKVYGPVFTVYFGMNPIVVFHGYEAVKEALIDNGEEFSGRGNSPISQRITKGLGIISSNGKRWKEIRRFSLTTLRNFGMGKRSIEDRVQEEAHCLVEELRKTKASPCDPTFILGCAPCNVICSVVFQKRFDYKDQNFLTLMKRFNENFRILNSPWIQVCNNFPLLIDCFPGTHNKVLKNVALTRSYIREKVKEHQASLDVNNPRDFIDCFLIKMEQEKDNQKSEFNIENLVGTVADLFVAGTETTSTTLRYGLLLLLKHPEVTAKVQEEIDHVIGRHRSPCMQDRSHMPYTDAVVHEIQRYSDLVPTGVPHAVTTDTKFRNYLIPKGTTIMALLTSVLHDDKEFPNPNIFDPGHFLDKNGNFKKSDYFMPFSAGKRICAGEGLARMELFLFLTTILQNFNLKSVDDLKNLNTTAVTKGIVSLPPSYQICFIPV

Cytochrome P450 2C9 = Cytochrome P450 2C9 (Homo sapiens, UniProt P11712); experiment: Inhibition of human liver microsome CYP2C9 using diclofenac as substrate incubated for 20 mins by LC-MS/MS analysis
Chain of Cytochrome P450 2C9 (P11712 whole entry): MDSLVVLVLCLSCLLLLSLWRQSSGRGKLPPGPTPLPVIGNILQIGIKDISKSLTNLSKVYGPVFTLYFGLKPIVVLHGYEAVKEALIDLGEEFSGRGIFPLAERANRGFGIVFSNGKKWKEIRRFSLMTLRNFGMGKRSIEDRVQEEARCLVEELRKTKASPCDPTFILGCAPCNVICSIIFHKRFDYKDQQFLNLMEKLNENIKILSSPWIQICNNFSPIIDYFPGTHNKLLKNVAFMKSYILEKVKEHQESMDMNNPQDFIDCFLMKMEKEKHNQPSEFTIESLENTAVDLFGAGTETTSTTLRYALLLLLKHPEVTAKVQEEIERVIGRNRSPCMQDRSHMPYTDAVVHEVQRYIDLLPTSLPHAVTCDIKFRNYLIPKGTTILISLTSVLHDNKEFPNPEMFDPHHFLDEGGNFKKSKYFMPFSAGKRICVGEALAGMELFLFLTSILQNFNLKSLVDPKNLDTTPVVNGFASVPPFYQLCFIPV

Cytochrome P450 2D6 = Cytochrome P450 2D6 (Homo sapiens, UniProt P10635); experiment: Inhibition of human liver microsome CYP2D6 using bufuralol as substrate incubated for 20 mins by LC-MS/MS analysis
Chain of Cytochrome P450 2D6 (P10635 whole entry): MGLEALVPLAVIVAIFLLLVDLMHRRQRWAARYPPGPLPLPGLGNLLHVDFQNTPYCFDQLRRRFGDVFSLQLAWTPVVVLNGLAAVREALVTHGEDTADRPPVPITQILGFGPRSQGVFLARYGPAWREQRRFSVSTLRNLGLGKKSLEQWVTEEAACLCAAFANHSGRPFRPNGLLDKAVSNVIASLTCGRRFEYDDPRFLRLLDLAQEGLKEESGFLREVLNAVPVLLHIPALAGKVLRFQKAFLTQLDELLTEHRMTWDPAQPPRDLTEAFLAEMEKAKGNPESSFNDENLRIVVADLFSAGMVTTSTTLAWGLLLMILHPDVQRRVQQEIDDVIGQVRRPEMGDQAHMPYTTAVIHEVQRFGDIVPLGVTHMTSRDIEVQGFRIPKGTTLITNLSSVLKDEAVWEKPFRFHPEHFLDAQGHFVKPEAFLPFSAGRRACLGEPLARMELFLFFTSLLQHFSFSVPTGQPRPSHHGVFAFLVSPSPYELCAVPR

[1] = target: Potassium voltage-gated channel subfamily H member 2 (Homo sapiens, UniProt Q12809); experiment: Inhibition of human ERG transfected in HEK293 cells assessed as reduction in channel current at -80 mV holding potential by whole-cell patch clamp method
Chain of Potassium voltage-gated channel subfamily H member 2 (Q12809 whole entry): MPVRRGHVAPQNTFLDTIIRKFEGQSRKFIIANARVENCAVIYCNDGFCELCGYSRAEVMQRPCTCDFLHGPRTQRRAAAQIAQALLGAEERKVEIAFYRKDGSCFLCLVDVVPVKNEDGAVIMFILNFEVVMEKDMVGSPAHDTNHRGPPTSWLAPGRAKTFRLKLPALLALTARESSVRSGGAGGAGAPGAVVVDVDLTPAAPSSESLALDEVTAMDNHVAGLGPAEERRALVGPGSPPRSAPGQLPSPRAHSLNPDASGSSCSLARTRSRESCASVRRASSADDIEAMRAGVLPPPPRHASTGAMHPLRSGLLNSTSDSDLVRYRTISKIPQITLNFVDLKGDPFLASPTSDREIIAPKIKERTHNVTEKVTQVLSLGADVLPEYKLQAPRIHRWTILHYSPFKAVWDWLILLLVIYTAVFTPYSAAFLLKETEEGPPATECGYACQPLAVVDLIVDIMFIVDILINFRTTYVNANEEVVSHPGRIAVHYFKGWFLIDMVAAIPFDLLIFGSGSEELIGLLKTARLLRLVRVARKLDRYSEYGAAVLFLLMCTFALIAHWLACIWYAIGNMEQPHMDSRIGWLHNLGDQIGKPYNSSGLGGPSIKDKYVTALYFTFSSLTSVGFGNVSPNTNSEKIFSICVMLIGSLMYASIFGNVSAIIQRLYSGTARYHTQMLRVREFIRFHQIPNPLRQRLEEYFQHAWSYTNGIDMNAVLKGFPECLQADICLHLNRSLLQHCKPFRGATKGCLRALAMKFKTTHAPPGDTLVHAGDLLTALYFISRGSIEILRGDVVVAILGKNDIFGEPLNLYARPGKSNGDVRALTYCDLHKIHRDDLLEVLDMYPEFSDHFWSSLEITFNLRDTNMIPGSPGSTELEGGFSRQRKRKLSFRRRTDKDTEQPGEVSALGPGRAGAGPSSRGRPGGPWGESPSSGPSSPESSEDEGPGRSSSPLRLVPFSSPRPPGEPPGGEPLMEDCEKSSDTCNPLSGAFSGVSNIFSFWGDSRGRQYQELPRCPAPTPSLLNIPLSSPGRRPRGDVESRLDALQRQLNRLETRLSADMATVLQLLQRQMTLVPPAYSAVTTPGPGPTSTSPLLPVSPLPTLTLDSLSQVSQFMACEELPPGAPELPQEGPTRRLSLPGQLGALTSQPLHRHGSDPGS

Cytochrome P450 1A2 = target: T2, Cytochrome P450 1A2 (Homo sapiens, UniProt P05177); experiment: Inhibition of human liver microsome CYP1A2 using phenacetin as substrate incubated for 20 mins by LC-MS/MS analysis
T2 sequence (P05177 whole entry): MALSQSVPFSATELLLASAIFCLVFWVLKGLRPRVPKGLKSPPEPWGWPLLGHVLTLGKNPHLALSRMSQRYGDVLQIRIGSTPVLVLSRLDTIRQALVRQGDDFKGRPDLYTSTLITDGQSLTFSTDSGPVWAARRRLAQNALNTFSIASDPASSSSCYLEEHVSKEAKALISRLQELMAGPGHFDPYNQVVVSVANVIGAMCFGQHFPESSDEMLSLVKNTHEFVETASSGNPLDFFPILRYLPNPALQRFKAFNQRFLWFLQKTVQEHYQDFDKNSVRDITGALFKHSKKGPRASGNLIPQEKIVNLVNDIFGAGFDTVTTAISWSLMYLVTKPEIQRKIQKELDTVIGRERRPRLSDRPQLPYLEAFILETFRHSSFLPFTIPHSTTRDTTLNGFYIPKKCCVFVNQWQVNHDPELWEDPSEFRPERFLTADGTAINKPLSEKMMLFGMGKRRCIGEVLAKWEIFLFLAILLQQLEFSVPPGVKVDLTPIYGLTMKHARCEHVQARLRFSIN

NC[C@H](NC(=O)c1ccc(-c2ccc(C(F)(F)F)c(F)c2)[nH]1)c1nc(CO)cs1
pIC50 (Cytochrome P450 2C8): < 4.60
pIC50 (Cytochrome P450 2C9): < 4.60
pIC50 (Cytochrome P450 2D6): < 4.60
pIC50 [1]: 5.52
pIC50 (Cytochrome P450 1A2): < 4.60
